According to patent publication US20100222421A1, “Usage of Baicalein in the Preparation of a Pharmaceutical Composition for the Treatment of Traumatic Brain Injury” (National Defense Medical Center, priority 2009, published 2010):

What was measured:
[1] = test system: degenerating neurons (FJB-positive cells) in cortical contusion margin; assay: Neuronal degeneration, FluoroJade B (FJB) staining; assay type: in vivo, rat; conditions: single-dose 30 mg kg^-1 i.p., 1 day post-injury, P<0.05
Experimental: A previously described CCI injury procedure was utilized (Chen et al., 2003). Male Sprague-Dawley rats, which have body weight of 250-300 g, were anaesthetized with sodium pentobarbital (i.p.; 50 mgkg^−1; Rhone Merieux, Harlow, UK) and placed in a stereotaxic frame. A 5-mm craniotomy was performed over the left parietal cortex, centered on the coronal suture and 3 mm lateral to the sagittal suture. Considerable care was taken to avoid injury to the underlying dura. Injury was made using a pneumatic piston with a rounded metal tip (2.5 mm diameter) that was angled 22.5° C. to the vertical so that the tip was perpendicular with the brain surface at the centre of the craniotomy. A velocity of 4 ms^−1 and a deformation depth 2 mm below the dura were used. The bone flap was immediately replaced and sealed, and the scalp was closed with sutures. Body temperature was monitored throughout the surgery by a rectal probe; temperature was maintained at 37.0±0.5° C. using a heated pad. […] Testing after injury was as follows: (1) real-time quantitative RT-PCR analysis for TNF-α, IL-1β and IL-6 mRNA expression at 6 h post-injury (n=7 for each group); (2) FluoroJade B (FJB) staining, TNF-α, IL-1β and IL-6 immunohistochemistry, as well as ELISA at 24 h post-injury to assess degenerative neurons and to determine cytokine expression (n=7 for each group). […]

[2] = test system: rats with controlled cortical impact (CCI) injury; assay: Rotarod test after CCI injury; assay type: in vivo, rat; conditions: for performance on the rotarod test versus vehicle-treated rats: days 1 to 28, P<0.05
Experimental: A previously described CCI injury procedure was utilized (Chen et al., 2003). Male Sprague-Dawley rats, which have body weight of 250-300 g, were anaesthetized with sodium pentobarbital (i.p.; 50 mgkg^−1; Rhone Merieux, Harlow, UK) and placed in a stereotaxic frame. A 5-mm craniotomy was performed over the left parietal cortex, centered on the coronal suture and 3 mm lateral to the sagittal suture. Considerable care was taken to avoid injury to the underlying dura. Injury was made using a pneumatic piston with a rounded metal tip (2.5 mm diameter) that was angled 22.5° C. to the vertical so that the tip was perpendicular with the brain surface at the centre of the craniotomy. A velocity of 4 ms^−1 and a deformation depth 2 mm below the dura were used. The bone flap was immediately replaced and sealed, and the scalp was closed with sutures. Body temperature was monitored throughout the surgery by a rectal probe; temperature was maintained at 37.0±0.5° C. using a heated pad. Rats were placed in a heated cage to maintain body temperature, while recovering from anaesthesia.
Baicalein (30 mg kg^−1) dissolved in 10% dimethyl sulphoxide (0.25-0.3 mL) or a corresponding volume of vehicle (10% dimethyl sulphoxide) was administered i.p. immediately following injury or daily for 4 days (immediately, 25, 49 and 73 h) after injury. Behaviour testing using the rotarod, tactile adhesive removal, mNSS and beam walk tests was performed at 28 hours as well as 4, 7, 14, 21 and 28 days post-injury. […]
An accelerating rotarod was used to measure rat motor function and balance (Hamm, 2001). Each rat was placed on the rotarod cylinder, and the time for which the animal remained on the rotarod was measured. […] One hour before CCI, the mean duration on the device was recorded with three rotarod measurements as the pre-injury baseline values. Post-injury latencies were expressed as a percentage of their respective baseline values to reduce inter-animal variability.

O=c1cc(-c2ccccc2)oc2cc(O)c(O)c(O)c12 [baicalein]
reduction of the number of FJB-positive cells versus vehicle [1]: 31%
rotarod test, multiple-dose versus single-dose treatment ([2]; 30 mg kg^-1 i.p., days 1, 4, 7 and 21 after injury): significantly more effective
performance on the rotarod test versus vehicle-treated rats ([2]; multiple-dose 30 mg kg^-1 i.p. daily for 4 days): significantly better
performance on the rotarod test versus vehicle-treated rats ([2]; single-dose 30 mg kg^-1 i.p. immediately after injury): significantly better
